Measurements reported in patent US9556165B2 (priority 2012, dated 2017).
≈ marks a conversion by molar mass, not a printed value.

Legend:
Assay type in all cases: cell-based
K. pneumoniae 60 = assay: MIC determination, broth microdilution (CLSI); details: Klebsiella pneumoniae, 60, strain 2
[1] = system: P. aeruginosa 2297-con (AmpC derepressed); assay: MIC determination, broth microdilution (CLSI); details: Pseudomonas aeruginosa, read-out: strain 8 MIC, strain 8
C. freundii K21/3034 = assay: MIC determination, broth microdilution (CLSI); details: Citrobacter freundii, K21/3034, strain 4
B. fragilis 6688 = assay: MIC determination, broth microdilution (CLSI); details: Bacteroides fragilis, 6688, strain 15; read-out: strain 15 MIC
E. coli ATCC25922 = assay: MIC determination, broth microdilution (CLSI); details: Escherichia coli, ATCC25922, strain 1
strain 21 = assay: MIC determination, broth microdilution (CLSI)
S. pneumoniae 113 = assay: MIC determination, broth microdilution (CLSI); details: Streptococcus pneumoniae, 113, strain 14; read-out: strain 14 MIC
S. aureus 133 = assay: MIC determination, broth microdilution (CLSI); details: Staphylococcus aureus, 133, strain 11; read-out: strain 11 MIC
H. influenzae ATCC 49247 = assay: MIC determination, broth microdilution (CLSI); details: Haemophilus influenzae, ATCC49247, strain 13; read-out: strain 13 MIC
strain 20 = assay: MIC determination, broth microdilution (CLSI)
C. perfringens DSM756 = assay: microbe, parasite or virus in culture; details: Clostridium perfringens, DSM756, read-out: strain 16 MIC, strain 16
M. catarrhalis ICB489 = assay: MIC determination, broth microdilution (CLSI); details: Moraxella catarrhalis, ICB489, strain 12
E. coli J62-TEM-3 = assay: MIC determination, broth microdilution (CLSI); details: Escherichia coli, J62TEM3, read-out: strain 18 MIC, strain 18
P. aeruginosa PAO1 = assay: MIC determination, broth microdilution (CLSI); details: Pseudomonas aeruginosa, PAO1, strain 6
E. cloacae 34654 = assay: MIC determination, broth microdilution (CLSI); details: Enterobacter cloacae, 34654, strain 3
E. coli J62 = assay: MIC determination, broth microdilution (CLSI); details: Escherichia coli, J62, strain 17; read-out: strain 17 MIC
M. morganii 126/3048 = assay: MIC determination, broth microdilution (CLSI); details: Morganella morganii, 126/3048, strain 5
[2] = system: P. aeruginosa 2297 (AmpC wt); assay: MIC determination, broth microdilution (CLSI); details: Pseudomonas aeruginosa, strain 7
A. baumannii ATCC15308 = assay: MIC determination, broth microdilution (CLSI); details: Acinetobacter baumannii, ATCC15308, strain 9
strain 19 = assay: MIC determination, broth microdilution (CLSI)
S. maltophilia ICB7569 = assay: MIC determination, broth microdilution (CLSI); details: Stenotrophomonas maltophilia, ICB7569, strain 10

SMILES	MIC (K. pneumoniae 60) [µg/mL]	MIC [1] [µg/mL]	MIC (C. freundii K21/3034) [µg/mL]	MIC (B. fragilis 6688) [µg/mL]	MIC (E. coli ATCC25922) [µg/mL]	MIC (strain 21) [µg/mL]	MIC (S. pneumoniae 113) [µg/mL]	MIC (S. aureus 133) [µg/mL]	MIC (H. influenzae ATCC 49247) [µg/mL]	MIC (strain 20) [µg/mL]	MIC (M. catarrhalis ICB489) [µg/mL]	MIC (E. coli J62-TEM-3) [µg/mL]	MIC (P. aeruginosa PAO1) [µg/mL]	MIC (E. cloacae 34654) [µg/mL]	MIC (E. coli J62) [µg/mL]	MIC (M. morganii 126/3048) [µg/mL]	MIC [2] [µg/mL]	MIC (A. baumannii ATCC15308) [µg/mL]	MIC (strain 19) [µg/mL]	also measured
Cc1cc(OCCO/N=C(\C(=O)N[C@@H]2C(=O)N(OS(=O)(=O)O)C2(C)C)c2csc(N)n2)ccc1C(=N)N [Example 13, (2Z)-2-(2-Amino-1,3-thiazol-4-yl)-2-{[2-(4-carbamimidoyl-3-methylphenoxy)ethoxy]imino}-N-[(3S)-2,2-dimethyl-4-oxo-1-(sulfooxy)azetidin-3-yl]ethanamide]	1 (≈ 1.8 µM)	8 (≈ 14.4 µM)	0.25 (≈ 0.45 µM)	4 (≈ 7.2 µM)	0.5 (≈ 0.9 µM)	0.5 (≈ 0.9 µM)	4 (≈ 7.2 µM)	≤ 0.063	≤ 0.063	0.5 (≈ 0.9 µM)	0.125 (≈ 0.225 µM)	32 (≈ 57.6 µM)	8 (≈ 14.4 µM)	1 (≈ 1.8 µM)	0.5 (≈ 0.9 µM)	0.5 (≈ 0.9 µM)	16 (≈ 28.8 µM)	1 (≈ 1.8 µM)	0.5 (≈ 0.9 µM)	MIC (C. perfringens DSM756): 2 µg/mL (≈ 3.6 µM)
C[C@H]1[C@H](NC(=O)/C(=N\OC(C)(C)COc2ccc(C(=N)N)cc2)c2csc(N)n2)C(=O)N1S(=O)(=O)O [Example 18, (2S,3S)-3-{[(2Z)-2-(2-Amino-1,3-thiazol-4-yl)-2-({[1-(4-carbamimidoylphenoxy)-2-methylpropan-2-yl]oxy}imino)acetyl]amino}-2-methyl-4-oxoazetidine-1-sulfonic acid]	1 (≈ 1.85 µM)	16 (≈ 29.7 µM)	1 (≈ 1.85 µM)	4 (≈ 7.41 µM)	1 (≈ 1.85 µM)	2 (≈ 3.71 µM)	4 (≈ 7.41 µM)	0.25 (≈ 0.463 µM)	0.5 (≈ 0.927 µM)	2 (≈ 3.71 µM)	0.5 (≈ 0.927 µM)	4 (≈ 7.41 µM)	4 (≈ 7.41 µM)	2 (≈ 3.71 µM)	2 (≈ 3.71 µM)	1 (≈ 1.85 µM)	4 (≈ 7.41 µM)	16 (≈ 29.7 µM)	2 (≈ 3.71 µM)	MIC (S. maltophilia ICB7569): 16 µg/mL (≈ 29.7 µM)
C[C@H]1[C@H](NC(=O)/C(=N\OCCOc2cnc(C(=N)N)cn2)c2csc(N)n2)C(=O)N1S(=O)(=O)O [Example 30, (2S,3S)-3-{[(2Z)-2-(2-Amino-1,3-thiazol-4-yl)-2-({2-[(5-carbamimidoylpyrazin-2-yl)oxy]-ethoxy}imino)acetyl]amino}-2-methyl-4-oxoazetidine-1-sulfonic acid]	≤ 0.063	32 (≈ 62.3 µM)	≤ 0.063	8 (≈ 15.6 µM)	0.125 (≈ 0.243 µM)	0.25 (≈ 0.487 µM)	4 (≈ 7.79 µM)	0.125 (≈ 0.243 µM)	0.5 (≈ 0.974 µM)	0.25 (≈ 0.487 µM)	0.25 (≈ 0.487 µM)	16 (≈ 31.2 µM)	4 (≈ 7.79 µM)	0.25 (≈ 0.487 µM)	0.25 (≈ 0.487 µM)	≤ 0.063	4 (≈ 7.79 µM)	1 (≈ 1.95 µM)	0.25 (≈ 0.487 µM)	
C[C@H]1[C@H](NC(=O)/C(=N\OCCOc2nc(C(=N)N)cs2)c2csc(N)n2)C(=O)N1S(=O)(=O)O [Example 31, (2S,3S)-3-{[(2Z)-2-(2-Amino-1,3-thiazol-4-yl)-2-({2-[(4-carbamimidoyl-1,3-thiazol-2-yl)oxy]ethoxy}imino)acetyl]amino}-2-methyl-4-oxoazetidine-1-sulfonic acid]	≤ 0.063	32 (≈ 61.7 µM)	≤ 0.063	4 (≈ 7.71 µM)	0.125 (≈ 0.241 µM)	0.25 (≈ 0.482 µM)	8 (≈ 15.4 µM)	≤ 0.063	0.25 (≈ 0.482 µM)	0.25 (≈ 0.482 µM)	0.25 (≈ 0.482 µM)	32 (≈ 61.7 µM)	8 (≈ 15.4 µM)	0.25 (≈ 0.482 µM)	0.25 (≈ 0.482 µM)	0.25 (≈ 0.482 µM)	8 (≈ 15.4 µM)	1 (≈ 1.93 µM)	0.125 (≈ 0.241 µM)	
C[C@H]1[C@H](NC(=O)/C(=N\OCCOc2ccc(C(=N)N)cc2N)c2csc(N)n2)C(=O)N1S(=O)(=O)O [Example 35, (2S,3S)-3-{[(2Z)-2-{[2-(2-Amino-4-carbamimidoylphenoxy)ethoxy]imino}-2-(2-amino-1,3-thiazol-4-yl)acetyl]amino}-2-methyl-4-oxoazetidine-1-sulfonic acid]	2 (≈ 3.8 µM)	32 (≈ 60.8 µM)	2 (≈ 3.8 µM)	16 (≈ 30.4 µM)	2 (≈ 3.8 µM)	4 (≈ 7.6 µM)	32 (≈ 60.8 µM)	0.25 (≈ 0.475 µM)	1 (≈ 1.9 µM)	8 (≈ 15.2 µM)	1 (≈ 1.9 µM)	32 (≈ 60.8 µM)	16 (≈ 30.4 µM)	4 (≈ 7.6 µM)	4 (≈ 7.6 µM)	1 (≈ 1.9 µM)	16 (≈ 30.4 µM)	2 (≈ 3.8 µM)	2 (≈ 3.8 µM)	
